Patent publication US8153631B2, “Triazole compounds and uses related thereto” (Amgen Inc., priority 2003, dated 2012)
pIC50: −log10 of the molar value.

Target: T1, human HSD1 (recombinant HSD1) (Homo sapiens, UniProt P28845)
T1 construct: made in house
Assay: In vitro HSD1 activity inhibitory action, SPA of cortisone to cortisol conversion
Type: biochemical
Details: recombinant human HSD1 0.1 μg/ml, 500 μM NADPH, 16 nM 3H cortisone, room temperature 90 min, read-out: hHSD1 IC50
Procedure: In Vitro HSD1 (Hydroxysteroid Dehydrogenase 1) Activity Inhibitory Action
The HSD1 inhibitory activity was examined by quantitative determination by an SPA (scintillation proximity assay) system of the suppressive action on the conversion from cortisone to cortisol using human HSD1 (hereinafter recombinant HSD1) expressed using a baculo-virus system as an enzyme source. For the reaction, a reagent was added to a 96 well plate (96 well Opti-plates™-96 (Packard)) to the following final concentration and a volume of 100 μl was reacted at room temperature for 90 min. The reaction solution used was 0.1 μg/ml recombinant HSD1, 500 μM NADPH, 16 nM ^3H cortisone (Amersham Biosciences, 1.78 Tbq/mol) dissolved in 0.1% BSA (Sigma)-containing PBS and the test drug was 2 μl of a compound solution (dissolved in DMSO). After 90 min, the reaction was stopped by adding PBS (40 μl, containing 0.1% BSA (Sigma)) containing 0.08 μg of anti-cortisol mouse monoclonal antibody (East Coast Biologics), 365 μg SPA PVT mouse antibody-binding beads (Amersham Biosciences) and 175 μM carbenoxolone (Sigma) to the reaction solution. After the completion of the reaction, the plate was incubated overnight at room temperature and the radioactivity was measured by Topcount (Packard). For control, the value (0% inhibition) of the well containing 2 μl of DMSO instead of the test drug was used, and for positive control, the value (100% inhibition) of the well containing carbenoxolone instead of the test drug at the final concentration of 50 μM was used. The inhibition (%) of the test drug was calculated by ((value of control−value of test drug)/(value of control−value of positive control))×100 (%). The IC50 value was analyzed using a computer-based curve fitting soft.

T1 sequence (P28845 whole entry): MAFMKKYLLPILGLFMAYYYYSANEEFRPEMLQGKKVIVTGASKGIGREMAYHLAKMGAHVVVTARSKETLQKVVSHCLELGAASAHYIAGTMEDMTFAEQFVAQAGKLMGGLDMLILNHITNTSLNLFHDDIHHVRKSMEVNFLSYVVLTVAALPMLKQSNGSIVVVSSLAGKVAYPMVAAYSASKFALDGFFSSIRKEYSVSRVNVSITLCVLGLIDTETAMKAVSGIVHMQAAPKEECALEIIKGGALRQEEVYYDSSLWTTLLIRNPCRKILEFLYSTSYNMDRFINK

| pIC50 | SMILES |
| --- | --- |
| 6.00 to 8.00 | CNC1CCN(c2nnc(C3(c4ccccc4)CC3)n2C)CC1 [Ex. 2-12] |
| > 8.00 | Cn1c(-c2ccc(N3CCCCC3)cc2Cl)nnc1C1(c2ccccc2)CC1 [Ex. 1-53] |
| > 8.00 | Cn1c(N2CCC(Oc3ccc(Cl)cn3)CC2)nnc1C1(c2ccccc2)CC1 [Ex. 2-39] |
| > 8.00 | Cn1c(N2CCC(Oc3ccc(Cl)cc3)CC2)nnc1C1(c2ccccc2)CC1 [Ex. 2-35] |
| > 8.00 | Cn1c(N2CCC(=O)CC2)nnc1C1(c2ccccc2)CC1 [Ex. 2-48] |
| 6.00 to 8.00 | CC(=O)N(C)C1CCN(c2nnc(C3(c4ccccc4)CC3)n2C)CC1 [Ex. 2-13] |
| > 8.00 | Cn1c(N2CCC(c3ccccc3)CC2)nnc1C1(c2ccccc2)CC1 [Ex. 2-1, 1-[4-methyl-5-(1-phenylcyclopropyl)-4H-[1,2,4]triazol-3-yl]-4-phenylpiperidine] |
| > 8.00 | CC1CCN(c2nnc(C3(c4ccccc4)CC3)n2C)CC1 [Ex. 2-53] |
| > 8.00 | CC(C)n1c(-c2ccc(C(N)=O)cc2)nnc1C1(c2ccccc2)CC1 [Ex. 1-132] |
| 6.00 to 8.00 | Cn1c(N2CCC(Oc3ccc(Cl)c(CO)c3)CC2)nnc1C1(c2ccccc2)CC1 [Ex. 2-63] |
| 6.00 to 8.00 | Cn1c(N2CCN(c3ccc(F)cc3)CC2)nnc1C1(c2ccccc2)CC1 [Ex. 2-89] |
| > 8.00 | CC(C)n1c(-c2cccc(C(N)=O)c2)nnc1C1(c2ccccc2)CC1 [Ex. 1-160] |
| > 8.00 | Cn1c(-c2ccc(OCC(F)(F)F)cc2Cl)nnc1C1(c2ccccc2)CC1 [Ex. 1-129] |
| > 8.00 | Cn1c(C2CCN(c3c(Cl)cncc3Cl)CC2)nnc1C1(c2ccccc2)CCCC1 [Ex. 1-13] |
| > 8.00 | Cn1c(-c2ccc(NC3CCN(C(=O)OC(C)(C)C)CC3)cc2Cl)nnc1C1(c2ccccc2)CC1 [Ex. 1-32] |
| > 8.00 | CC(=O)Nc1ccc(-c2nnc(C3(c4ccccc4)CC3)n2C)c(Cl)c1 [Ex. 1-21] |
| 6.00 to 8.00 | Cn1c(-c2ccc(Cl)cc2N)nnc1C1(c2ccccc2)CC1 [Ex. 1-94] |
| 6.00 to 8.00 | CN(C)CCNC(=O)c1ccc(-c2nnc(C3(c4ccccc4)CC3)n2C)c(Cl)c1 [Ex. 1-87] |
| 6.00 to 8.00 | CN(C(=O)OC(C)(C)C)C1CCN(c2nnc(C3(c4ccccc4)CC3)n2C)CC1 [Ex. 2-11] |
| > 8.00 | COCCOC(=O)C1CCN(c2ccc(-c3nnc(C4(c5ccccc5)CC4)n3C)c(Cl)c2)CC1 [Ex. 1-62] |
| > 8.00 | Cn1c(-c2ccc(Cl)cc2Cl)nnc1C1(c2ccc(F)cc2)CC1 [Ex. 1-107] |
| > 8.00 | Cn1c(C2(c3ccccc3)CC2)nnc1[C@H]1CC[C@H](C(N)=O)CC1 [Ex. 1-112] |
| 6.00 to 8.00 | Cn1c(-c2ccc(C(=O)NCCN3CCOCC3)cc2Cl)nnc1C1(c2ccccc2)CC1 [Ex. 1-88] |
| > 8.00 | Cn1c(-c2ccc(OCC(N)=O)cc2Cl)nnc1C1(c2ccccc2)CC1 [Ex. 1-69] |
| > 8.00 | Cn1c(-c2ccc(N3CCC(C(=O)N4CCOCC4)CC3)cc2Cl)nnc1C1(c2ccccc2)CC1 [Ex. 1-114] |
| > 8.00 | CN(c1ccccc1)c1nnc(C2(c3ccccc3)CC2)n1C [Ex. 2-93] |

| pIC50 | SMILES |
| --- | --- |
| 6.00 to 8.00 | CNC(=O)c1cccc(OC2CCN(c3nnc(C4(c5ccccc5)CC4)n3C)CC2)c1 [Ex. 2-56] |
| 6.00 to 8.00 | Cn1c(-c2ccc(NC(=O)CN3CCC(O)CC3)cc2Cl)nnc1C1(c2ccccc2)CC1 [Ex. 1-43] |
| 6.00 to 8.00 | CN(C)C(=O)C1CCN(c2nnc(C3(c4ccccc4)CC3)n2C)CC1 [Ex. 2-19] |
| > 8.00 | Cn1c(-c2ccc(N3CCC(O)CC3)cc2Cl)nnc1C1(c2ccccc2)CC1 [Ex. 1-54] |
| > 8.00 | Cn1c(N2CCC(Oc3ncc(Cl)cc3Cl)CC2)nnc1C1(c2ccc(F)cc2)CC1 [Ex. 2-31] |
| 6.00 to 8.00 | Cn1c(-c2ccc(C(=O)N3CCOCC3)cc2Cl)nnc1C1(c2ccccc2)CC1 [Ex. 1-74] |
| > 8.00 | Cn1c(-c2ccc(N3CCOCC3)cc2Cl)nnc1C1(c2ccccc2)CC1 [Ex. 1-90] |
| > 8.00 | Cn1c(N2CCc3ccccc3C2)nnc1C1(c2ccccc2)CC1 [Ex. 2-24] |
| > 8.00 | Cn1c(C2(c3ccccc3)CC2)nnc1C1(c2ccccc2)CC1 [Ex. 1-121] |
| > 8.00 | Cn1c(-c2ccc(NC(=O)N3CCOCC3)cc2Cl)nnc1C1(c2ccccc2)CC1 [Ex. 1-30] |
| 6.00 to 8.00 | COC1CCN(CC(=O)Nc2ccc(-c3nnc(C4(c5ccccc5)CC4)n3C)c(Cl)c2)CC1 [Ex. 1-45] |
| > 8.00 | Cn1c(-c2ccc(C(N)=O)cc2Cl)nnc1C1(c2cccs2)CC1 [Ex. 1-144] |
| > 8.00 | Cn1c(-c2ccc(N3CCNC3=O)cc2Cl)nnc1C1(c2ccccc2)CC1 [Ex. 1-39] |
| 6.00 to 8.00 | Cn1c(-c2ccc(NC(=O)CN3CCCC(O)C3)cc2Cl)nnc1C1(c2ccccc2)CC1 (stereo not drawn) [Ex. 1-44] |
| > 8.00 | CC(C)C1CCN(c2nnc(C3(c4ccccc4)CC3)n2C)CC1 [Ex. 2-65] |
| > 8.00 | Cn1c(-c2ccc(Cl)cc2Cl)nnc1C1(c2ccccc2)CC1 [Ex. 1-18] |
| > 8.00 | Cn1c(-c2ccc(O)cc2Cl)nnc1C1(c2ccccc2)CC1 [Ex. 1-68] |
| 6.00 to 8.00 | Cn1c(C2CCN(Cc3ccc(Cl)cc3Cl)CC2)nnc1C1(c2ccccc2)CC1 [Ex. 1-12] |
| 6.00 to 8.00 | CCCn1c(N2CCC(Oc3ncc(Cl)cc3Cl)CC2)nnc1C1(c2ccccc2)CC1 [Ex. 2-71] |
| > 8.00 | CONC(=O)Nc1ccc(-c2nnc(C3(c4ccc(F)cc4)CC3)n2C(C)C)cc1 [Ex. 1-153] |
| > 8.00 | CN(O)C(=O)Nc1ccc(-c2nnc(C3(c4ccccc4)CC3)n2C)c(Cl)c1 [Ex. 1-137] |
| > 8.00 | COC(=O)CCn1c(C2CCN(c3c(Cl)cncc3Cl)CC2)nnc1C1(c2ccccc2)CC1 [Ex. 1-8] |
| > 8.00 | Cn1c(-c2ccccc2Cl)nnc1C1(c2ccc(F)cc2)CC1 [Ex. 1-134] |
| 6.00 to 8.00 | Cn1c(N2CCC(C(=O)O)CC2)nnc1C1(c2ccccc2)CC1 [Ex. 2-5] |
| > 8.00 | Cn1c(N2CCC(C(N)=O)CC2)nnc1C1(c2ccccc2)CC1 [Ex. 2-16] |
| > 8.00 | CC(C)C(=O)N1CCN(c2ccc(-c3nnc(C4(c5ccccc5)CC4)n3C)c(Cl)c2)CC1 [Ex. 1-51] |

| pIC50 | SMILES |
| --- | --- |
| > 8.00 | Cn1c(C2CCCCC2)nnc1C1(c2ccccc2)CC1 [Ex. 1-103] |
| 6.00 to 8.00 | COC(=O)C1(c2ccccc2)CCN(c2nnc(C3(c4ccccc4)CC3)n2C)CC1 [Ex. 2-2] |
| 6.00 to 8.00 | Cn1c(N2CCS(=O)(=O)CC2)nnc1C1(c2ccccc2)CC1 [Ex. 2-22] |
| 6.00 to 8.00 | Cn1c(N2CCC(Cc3ccccc3)CC2)nnc1C1(c2ccccc2)CC1 [Ex. 2-34] |
| > 8.00 | Cn1c(-c2ccc(N3CCC(NC(=O)OC(C)(C)C)CC3)cc2Cl)nnc1C1(c2ccccc2)CC1 [Ex. 1-63] |
| 6.00 to 8.00 | Cn1c(C2CCN(c3c(Cl)cncc3Cl)CC2)nnc1C1(c2ccccc2)CCNCC1 [Ex. 1-16] |
| 6.00 to 8.00 | Cn1c(-c2ccc(N3CCC(C(=O)O)CC3)cc2Cl)nnc1C1(c2ccccc2)CC1 [Ex. 1-59] |
| 6.00 to 8.00 | Cn1c(-c2ccc(NC(=O)N3CCC(O)CC3)cc2Cl)nnc1C1(c2ccccc2)CC1 [Ex. 1-42] |
| 6.00 to 8.00 | COC(=O)[C@H]1CC[C@H](c2nnc(C3(c4ccccc4)CC3)n2C)CC1 [Ex. 1-104] |
| > 8.00 | Cn1c(-c2ccc(NC(=O)CO)cc2Cl)nnc1C1(c2ccccc2)CC1 [Ex. 1-23] |
| 6.00 to 8.00 | Cn1c(N2CCC(Oc3ncc(C(F)(F)F)cc3Cl)CC2)nnc1C1(c2ccccc2)CC1 [Ex. 2-37] |
| > 8.00 | C=CCn1c(N2CCC(Oc3ncc(Cl)cc3Cl)CC2)nnc1C1(c2ccccc2)CC1 [Ex. 2-75] |
| 6.00 to 8.00 | Cn1c(N2CCC(Oc3ccccc3C(=O)O)CC2)nnc1C1(c2ccccc2)CC1 [Ex. 2-46] |
| 6.00 to 8.00 | Cn1c(C2(c3ccccc3)CC2)nnc1[C@H]1CC[C@H](C(=O)O)CC1 [Ex. 1-111] |
| > 8.00 | Cn1c(N2CCC(Oc3ncc(Cl)cc3Cl)CC2)nnc1C1(c2ccccc2)CCCC1 [Ex. 2-81] |
| > 8.00 | Cn1c(-c2cc(Cl)ccc2Cl)nnc1C1(c2ccc(F)cc2)CC1 [Ex. 1-122] |
| 6.00 to 8.00 | Cn1c(-c2ccc(C(=O)O)cc2Cl)nnc1C1(c2ccccc2)CC1 [Ex. 1-72] |
| > 8.00 | CN(C)CC(=O)Nc1ccc(-c2nnc(C3(c4ccccc4)CC3)n2C)c(Cl)c1 [Ex. 1-25] |
| > 8.00 | Cn1c(-c2ccc(F)cc2Cl)nnc1C1(c2ccccc2)CC1 [Ex. 1-92] |
| > 8.00 | Cn1c(N2CCC(Oc3ccc(F)cc3Cl)CC2)nnc1C1(c2ccccc2)CC1 [Ex. 2-36] |
| > 8.00 | CN(C)C(=O)C1CCN(c2ccc(-c3nnc(C4(c5ccccc5)CC4)n3C)c(Cl)c2)CC1 [Ex. 1-115] |
| 6.00 to 8.00 | Cn1c(N2CCC(C)(C(=O)O)CC2)nnc1C1(c2ccccc2)CC1 [Ex. 2-69] |
| > 8.00 | CCn1c(N2CCC(Oc3ncc(Cl)cc3Cl)CC2)nnc1C1(c2ccccc2)CC1 [Ex. 2-79] |
| 6.00 to 8.00 | COC1(c2ccccc2)CCN(c2nnc(C3(c4ccccc4)CC3)n2C)CC1 [Ex. 2-42] |
| > 8.00 | CCCC(=O)Nc1ccc(-c2nnc(C3(c4ccccc4)CC3)n2C)c(Cl)c1 [Ex. 1-28] |
| 6.00 to 8.00 | Cn1c(N2CCNCC2)nnc1C1(c2ccccc2)CC1 [Ex. 2-26] |
